{
  "source": "patent EP0395653B1",
  "about": "“SYNOVIAL PHOSPHOLIPASES” (ELI LILLY AND COMPANY, priority 1987, dated 1989)",
  "key": {"highly purified PLA₂": {"target": "T1, highly purified PLA₂ (Homo sapiens, UniProt P14555)", "T1 construct": "from tissue; host or cells: pooled synovial fluid (CM Sephadex C50, Sephadex G75, preparative SDS-PAGE)", "T1 sequence (P14555 21-144)": "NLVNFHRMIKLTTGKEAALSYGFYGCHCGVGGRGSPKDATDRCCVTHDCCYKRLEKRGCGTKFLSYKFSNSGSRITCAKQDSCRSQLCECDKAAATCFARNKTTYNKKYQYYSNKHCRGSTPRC", "assay": "effect of SDS on rate of hydrolysis of phosphatidylcholine (Shakir's method)", "type": "biochemical", "details": "of initial enzyme activity", "experimental": "Determination of phospholipase activities towards the radiolabeled synthetic substrates, dipalmitoylphosphatidylcholine, and 2-linoleoyl-1-palmitoylphosphatidylethanolamine, was carried out as described by Shakir, (1981) Anal Biochim 114:64-70. Standard incubation mixtures contained 750 nmol of phospholipid, 2 mM CaCl₂, 2 mM sodium deoxycholate (DOC), 0.09% Triton X-100, and enzyme protein in 0.1 M Tris-HCl buffer in a total volume of 400 µl. Incubations were carried out at optimal pH (see below) for 1 h at 37°C in a shaking water bath. The reaction was stopped by addition of 2.0 ml of n-heptane-isopropanol-1 N sulfuric acid (1:4:0.1, v/v/v). Released fatty acids were extracted by the method of Shakir, (1981) Anal Biochim 114:64-70. PLA₂ activity is expressed as nmol of released fatty acid per mg of protein per h.\nThe effect of SDS on the rate of hydrolysis of phosphatidylcholine by highly purified PLA₂ was studied using Shakir's method, supra. SDS inhibited PLA₂ activity on a concentration-dependent manner. Inhibition of PLA₂ was 94 and 7% of initial enzyme activity at SDS concentrations of 1 mg/ml and 0.1 mg/ml, respectively. In evaluating the utility of preparative SDS-PAGE, recovery of enzyme from the slab gel was consistently between 95-100% of the total enzyme applied to the gel."}, "sPLA₂ type A": {"target": "sPLA₂ type A (Homo sapiens, UniProt P14555)", "details": "0.5 M Tris"}, "sPLA₂ type B": {"tested_on": "sPLA₂ type B", "assay": "effect of Tris or Na deoxycholate on hydrolytic activity", "type": "biochemical, human"}},
  "data": [
    {"molecule": "CCCCCCCCCCCCOS(=O)(=O)[O-].[Na+]", "note": "[SDS, sodium dodecyl sulfate]", "values": [
      {"measurement": "inhibition at 100 µg/mL", "setting": "highly purified PLA₂; SDS 0.1 mg/ml", "result": 7, "unit": "%"},
      {"measurement": "inhibition at 1000 µg/mL", "setting": "highly purified PLA₂; SDS 1 mg/ml", "result": 94, "unit": "%"}
    ]},
    {"molecule": "NC(CO)(CO)CO", "note": "[Tris]", "values": [
      {"measurement": "effect on sPLA₂ type A activity", "setting": "sPLA₂ type A", "result": "inhibited"},
      {"measurement": "effect on hydrolytic activity of type B relative to type A", "setting": "sPLA₂ type B; 0.5 M Tris", "result": "considerable stimulation"}
    ]},
    {"molecule": "sodium deoxycholate [Na deoxycholate]", "values": [
      {"measurement": "effect on hydrolytic activity of type B relative to type A", "setting": "sPLA₂ type B; 0.1% Na deoxycholate", "result": "considerable stimulation"}
    ]}
  ]
}
